From patent US20250359576A1, “THEANINE-CONTAINING COMPOSITION” (TAIYO KAGAKU Co., Ltd., priority 2024, published 2025)

How the values were obtained:
panelists [1] = assay: Test Example 3: sensory evaluation of unpleasant taste (off-flavor) at high concentrations, upper limit; type: in vivo; conditions: six panelists
Protocol: Solutions containing theanine (Taiyo Kagaku Co., Ltd.: Suntheanine (registered trademark) U001) were prepared to contain 0 (control), 100, 500, 1000, 5000, and 10000 ppm of organic nitrogen compound A or C.
More specifically, 1996 mL of deionized water was added to 4 g of theanine, to prepare the theanine control solution (2 mg/mL theanine solution). 10000 ppm organic nitrogen compound solutions were prepared by adding […] of theanine control solution to 10 g of each organic nitrogen compound A and C.
150 mL of theanine control solution was added to 150 mL of each of the 10000 ppm organic nitrogen compound solutions to prepare 5000 ppm organic nitrogen compound solutions.
180 mL of theanine control solution was added to 20 mL of each of 10000 ppm organic nitrogen compound solutions to prepare 1000 ppm organic nitrogen compound solutions.
180 mL of theanine control solution was added to 20 mL of each of the 5000 ppm organic nitrogen compound solutions to prepare 500 ppm organic nitrogen compound solutions.
180 mL of theanine control solution was added to 20 mL of each of the 1000 ppm organic nitrogen compound solutions to prepare 100 ppm organic nitrogen compound solutions.
Similar solutions were also prepared for organic nitrogen compound C.
A sensory (taste) evaluation was conducted by six panelists. The evaluation category was unpleasant taste, which was considered to be an off-flavor.

panelists [2] = assay: Test Example 4: three-point discrimination sensory evaluation of organic nitrogen compound alone without theanine; type: in vivo; conditions: compound alone in deionized water without theanine; 5 ppm test solution; eight panelists; binomial test, p<0.10
Protocol: Organic nitrogen compound B was added to deionized water (i.e. not containing theanine) to prepare solutions containing 0 (control), 5, 50, and 100 ppm of organic nitrogen compound B.
In other words, […] of organic nitrogen compound B was dissolved in 1000 mL of deionized water (control) to make a 100 ppm solution. 150 mL of deionized water was added to 150 mL of the 100 ppm organic nitrogen compound B solution to make a 50 ppm organic nitrogen compound B solution.
20 mL of the 50 ppm organic nitrogen compound B solution was mixed with 180 mL of deionized water to make a 5 ppm organic nitrogen compound B solution.
A three-point discrimination sensory evaluation was conducted by eight panelists. Bitterness was used as the evaluation category. […] The panelists were asked to select solution(s) that they felt was (were) bitter. Analysis was performed using a binomial test. In the statistical analysis, a significance level of 10% (p<0.10) was used as the threshold for statistical significance.

Compound	panelists who noticed an unpleasant taste (panelists [1]; 100-500 ppm in 2 mg/mL theanine solution)	panelists who noticed an unpleasant taste (panelists [1]; 1000-5000 ppm in 2 mg/mL theanine solution)	panelists who noticed an unpleasant taste (panelists [1]; 10000 ppm in 2 mg/mL theanine solution)	bitterness, three-point discrimination vs deionized water (panelists [2])
CC(N)=O [organic nitrogen compound C, acetamide]	one of six panelists	two of six panelists	all panelists	
CCNC=O [organic nitrogen compound B, ethylformamide]				no significant difference
